Assay results as given in patent US20240132431A1, “METHOD FOR ALKYLATING ACIDIC FUNCTIONAL GROUP” (Chugai Seiyaku Kabushiki Kaisha, priority 2021, published 2024).

Molecular target: T1, Bcl-2 protein (Recombinant Human Bcl-2 Protein) (Homo sapiens, UniProt P10415)
T1 construct: purchased Novus NBP2-34889
Test: Binding evaluation of mixture library compounds to Bcl-2 using AS-MS (affinity selection mass spectrometry)
Settings: for ASMS ratio (%) n = 2 / ASMS ratio (%) n = 1: ASMS Ratio(%)=(A−C)/B×100; for ASMS ratio (%) n = 2: replicate n = 2; for ASMS ratio (%) n = 1: replicate n = 1
Summary of the method: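 ASMS Ratio (%) was calculated as (A−C)/B×100, where A is the protein sample after SEC, B the protein-free sample without SEC and C the protein-free sample after SEC. Each compound was at […] in a 1200-member pool with 20 μM Bcl-2, incubated 1 h at 23° C.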

[1] = AS-MS on the mixture of 1200 library compounds
[2] = AS-MS, mixture of 1200 compounds, Bcl-2

T1 sequence (P10415 whole entry): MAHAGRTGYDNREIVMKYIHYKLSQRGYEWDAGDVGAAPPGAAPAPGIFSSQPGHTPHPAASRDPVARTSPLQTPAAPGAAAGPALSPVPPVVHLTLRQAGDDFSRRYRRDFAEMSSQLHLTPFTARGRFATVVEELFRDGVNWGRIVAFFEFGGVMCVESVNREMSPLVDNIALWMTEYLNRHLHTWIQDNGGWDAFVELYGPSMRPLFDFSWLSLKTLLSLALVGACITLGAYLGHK

ASMS ratio (%) (n = 1)	ASMS ratio (%) (n = 2)	Molecule	further results
		CCOc1cccc(C#Cc2ccccc2CN2CCN(c3ccc(C(=O)N(C)CC45CC6CC(CC(C6)C4)C5)cc3)CC2)c1 [B3A069-01, N-(1-Adamantylmethyl)-4-[4-[[2-[2-(3-ethoxyphenyl)ethynyl]phenyl]methyl]piperazin-1-yl]-N-methylbenzamide]	ASMS ratio (%) n = 2 [1]: 12872.1%
		CCOc1cncc(-c2ccccc2CN2CCN(c3ccc(C(=O)Nc4ccc(OC)cc4)cc3)CC2)c1 [B1O046-01, 4-[4-[[2-(5-Ethoxypyridin-3-yl)phenyl]methyl]piperazin-1-yl]-N-(4-methoxyphenyl)benzamide]	ASMS ratio (%) n = 1 [1]: 0.6%; ASMS ratio (%) n = 2 [1]: 1.3%
0.0	0.0	CCOc1cccc(-c2ccc(CN3CCN(c4ccc(C(=O)NS(C)(=O)=O)nn4)CC3)cc2C)c1 [B2I073-01, 6-[4-[[4-(3-Ethoxyphenyl)-3-methylphenyl]methyl]piperazin-1-yl]-N-methylsulfonylpyridazine-3-carboxamide]	
0.0	−0.7	CCOc1cncc(-c2ccc(CN3CCN(c4ccc(C(=O)NS(=O)(=O)CCC(F)(F)F)cc4)CC3)cc2C)c1 [B2N048-01, 4-[4-[[4-(5-Ethoxypyridin-3-yl)-3-methylphenyl]methyl]piperazin-1-yl]-N-(3,3,3-trifluoropropylsulfonyl)benzamide]	
0.0	0.0	CCOc1cncc(C#Cc2cc(C(=O)N3CCN(c4ccc(C(=O)NS(=O)(=O)CCC(F)(F)F)nn4)CC3)cc(C(F)(F)F)c2)c1 [B2N020-01, 6-[4-[3-[2-(5-Ethoxypyridin-3-yl)ethynyl]-5-(trifluoromethyl)benzoyl]piperazin-1-yl]-N-(3,3,3-trifluoropropylsulfonyl)pyridazine-3-carboxamide]	
		CCOc1cncc(-c2cc(CN3CCN(c4ccc(C(=O)N(C)CC56CC7CC(CC(C7)C5)C6)nn4)CC3)cc(OC(C)C)c2)c1 [B3A084-01, N-(1-Adamantylmethyl)-6-[4-[[3-(5-ethoxypyridin-3-yl)-5-propan-2-yloxyphenyl]methyl]piperazin-1-yl]-N-methylpyridazine-3-carboxamide]	ASMS ratio (%) n = 1 [1]: −17.6%; ASMS ratio (%) n = 2 [1]: −7.4%
−3.7	−4.1	CCOc1cncc(-c2cnn(-c3cc(C(=O)N4CCN(c5ccc(C(=O)NS(=O)(=O)c6ccc(NCCSc7ccccc7)c(C(F)(F)F)c6)cc5)CC4)cc(C(F)(F)F)c3)c2)c1 [B2R044-01, 4-[4-[3-[4-(5-Ethoxypyridin-3-yl)pyrazol-1-yl]-5-(trifluoromethyl)benzoyl]piperazin-1-yl]-N-[4-(2-phenylsulfanylethylamino)-3-(trifluoromethyl)phenyl]sulfonylbenzamide]	
		CCOc1cncc(-c2ccc(CN3CCN(c4ccc(C(=O)N(C)CC56CC7CC(CC(C7)C5)C6)nn4)CC3)cc2C)c1 [B3A074-01, N-(1-Adamantylmethyl)-6-[4-[[4-(5-ethoxypyridin-3-yl)-3-methylphenyl]methyl]piperazin-1-yl]-N-methylpyridazine-3-carboxamide]	ASMS ratio (%) n = 1 [1]: 10.7%; ASMS ratio (%) n = 2 [1]: −17.2%
1.8	−0.3	CCOc1cncc(-c2ccc(CN3CCN(c4ccc(C(=O)NS(=O)(=O)C(C)(C)C)nn4)CC3)c(CC)c2)c1 [B2L076-01, N-tert-Butylsulfonyl-6-[4-[[4-(5-ethoxypyridin-3-yl)-2-ethylphenyl]methyl]piperazin-1-yl]pyridazine-3-carboxamide]	
0.8	1.4	CCOc1cccc(-c2ccc(C(C)N3CCN(c4ccc(C(=O)NS(C)(=O)=O)cc4)CC3)cc2)c1 (stereo not shown) [B2I097-01, 4-[4-[1-[4-(3-Ethoxyphenyl)phenyl]ethyl]piperazin-1-yl]-N-methylsulfonylbenzamide]	
0.0	0.0	CCOc1cccc(-c2cc(CN3CCN(c4ccc(C(=O)NS(=O)(=O)C(C)(C)C)cc4)CC3)cc(OCC)c2)c1 [B2L055-01, N-tert-Butylsulfonyl-4-[4-[[3-ethoxy-5-(3-ethoxyphenyl)phenyl]methyl]piperazin-1-yl]benzamide]	
21.6	0.0	CCOc1cccc(-c2ccc(C(=O)N3CCN(c4ccc(C(=O)NS(=O)(=O)c5ccc(NCCSc6ccccc6)c(C(F)(F)F)c5)nn4)CC3)cc2C)c1 [B2R003-01, 6-[4-[4-(3-Ethoxyphenyl)-3-methylbenzoyl]piperazin-1-yl]-N-[4-(2-phenylsulfanylethylamino)-3-(trifluoromethyl)phenyl]sulfonylpyridazine-3-carboxamide]	
		CCOc1cccc(-c2ccc(CN3CCN(c4ccc(C(=O)NS(=O)(=O)CC56CC7CC(CC(C7)C5)C6)cc4)CC3)c(OC)c2)c1 [B2A053-01, N-(1-Adamantylmethylsulfonyl)-4-[4-[[4-(3-ethoxyphenyl)-2-methoxyphenyl]methyl]piperazin-1-yl]benzamide]	ASMS ratio (%) n = 1 (AS-MS, mixture library, Bcl-2): 0.0%; ASMS ratio (%) n = 2 (AS-MS, mixture library, Bcl-2): 0.0%
2.5	2.8	CCOc1cncc(-c2cc(CN3CCN(c4ccc(C(=O)NS(=O)(=O)CCC(F)(F)F)nn4)CC3)cc(OCC)c2)c1 [B2N082-01]	
		CCOc1cccc(-c2cc(CN3CCN(c4ccc(C(=O)N(C)CC56CC7CC(CC(C7)C5)C6)nn4)CC3)cc(C(F)(F)F)c2)c1 [B3A087-01, N-(1-Adamantylmethyl)-6-[4-[[3-(3-ethoxyphenyl)-5-(trifluoromethyl)phenyl]methyl]piperazin-1-yl]-N-methylpyridazine-3-carboxamide]	ASMS ratio (%) n = 1 [1]: 0.4%; ASMS ratio (%) n = 2 [1]: 1.4%
0.0	0.0	CCOc1cncc(-c2ccc(C(=O)N3CCN(c4ccc(C(=O)NS(=O)(=O)C(C)(C)C)cc4)CC3)cc2C)c1 [B2L026-01, N-tert-Butylsulfonyl-4-[4-[4-(5-ethoxypyridin-3-yl)-3-methylbenzoyl]piperazin-1-yl]benzamide]	
		CCOc1cccc(-c2cc(OC)c(CN3CCN(c4ccc(C(=O)NCC(F)(F)F)cc4)CC3)c(OC)c2)c1 [B1K059-01]	ASMS ratio (%) n = 1 [2]: 3.0%; ASMS ratio (%) n = 2 [2]: −1.9%
0.0	0.0	CCOc1cncc(-c2cc(OC)c(CN3CCN(c4ccc(C(=O)NS(C)(=O)=O)cc4)CC3)c(OC)c2)c1 [B2I060-01]	
1.6	3.5	CCOc1cncc(-c2ccccc2CCC(=O)N2CCN(c3ccc(C(=O)NS(=O)(=O)C(C)(C)C)cc3)CC2)c1 [B2L034-01, N-tert-Butylsulfonyl-4-[4-[3-[2-(5-ethoxypyridin-3-yl)phenyl]propanoyl]piperazin-1-yl]benzamide]	
		CCOc1cccc(-c2csc(C(=O)N3CCN(c4ccc(C(=O)NS(C)(=O)=O)nn4)CC3)c2)c1 [B2I001-01, 6-[4-[4-(3-Ethoxyphenyl)thiophene-2-carbonyl]piperazin-1-yl]-N-methylsulfonylpyridazine-3-carboxamide]	ASMS ratio (%) n = 1 (AS-MS, mixture library, Bcl-2): 0.0%
		4-[4-[[4-(5-Ethoxypyridin-3-yl)-2-methoxyphenyl]methyl]piperazin-1-yl]-N-propylbenzamide [B1M099-01]	ASMS ratio (%) n = 1 [1]: −0.7%; ASMS ratio (%) n = 2 [1]: −0.3%
		CCOc1cncc(-c2csc(C(=O)N3CCN(c4ccc(C(=O)NS(=O)(=O)c5ccc(NCCSc6ccccc6)c([N+](=O)[O-])c5)nn4)CC3)c2)c1 [B2Q002-01, 6-[4-[4-(5-Ethoxypyridin-3-yl)thiophene-2-carbonyl]piperazin-1-yl]-N-[3-nitro-4-(2-phenylsulfanylethylamino)phenyl]sulfonylpyridazine-3-carboxamide]	ASMS ratio (%) n = 1 (AS-MS, mixture library, Bcl-2): 24.5%; ASMS ratio (%) n = 2 (AS-MS, mixture library, Bcl-2): 17.2%
0.0	0.0	CCOc1cccc(-c2cc(OC)c(CN3CCN(c4ccc(C(=O)NS(=O)(=O)C(C)(C)C)nn4)CC3)c(OC)c2)c1 [B2L085-01, N-tert-Butylsulfonyl-6-[4-[[4-(3-ethoxyphenyl)-2,6-dimethoxyphenyl]methyl]piperazin-1-yl]pyridazine-3-carboxamide]	
		CCOc1cncc(C#Cc2cc(C(=O)N3CCN(c4ccc(C(=O)NCC(F)(F)F)nn4)CC3)cc(C(F)(F)F)c2)c1 [B1K020-01, 6-[4-[3-[2-(5-Ethoxypyridin-3-yl)ethynyl]-5-(trifluoromethyl)benzoyl]piperazin-1-yl]-N-(2,2,2-trifluoroethyl)pyridazine-3-carboxamide]	ASMS ratio (%) n = 1 [2]: 2.9%; ASMS ratio (%) n = 2 [2]: −3.8%
		CCOc1cncc(C#Cc2cncc(C(=O)N3CCN(c4ccc(C(=O)NCC56CC7CC(CC(C7)C5)C6)cc4)CC3)c2)c1 [B1A032-01, N-(1-Adamantylmethyl)-4-[4-[5-[2-(5-ethoxypyridin-3-yl)ethynyl]pyridine-3-carbonyl]piperazin-1-yl]benzamide]	ASMS ratio (%) n = 1 [2]: 0.0%; ASMS ratio (%) n = 2 [2]: −9.1%
		CCOc1cncc(-c2cc(C(=O)N3CCN(c4ccc(C(=O)NCC56CC7CC(CC(C7)C5)C6)nn4)CC3)cc(C(F)(F)F)c2)c1 [B1A018-01, N-(1-Adamantylmethyl)-6-[4-[3-(5-ethoxypyridin-3-yl)-5-(trifluoromethyl)benzoyl]piperazin-1-yl]pyridazine-3-carboxamide]	ASMS ratio (%) n = 1 [2]: −6.5%; ASMS ratio (%) n = 2 [2]: 9.9%
		CCOc1cncc(-c2ccc(CN3CCN(c4ccc(C(=O)Nc5ccc(OC)cc5)nn4)CC3)cc2F)c1 [B1O078-01]	ASMS ratio (%) n = 1 [1]: 4.8%; ASMS ratio (%) n = 2 [1]: 1.8%
